# Data as given in US5298508A, “Irreversible inhibitors of adenosine receptors” (priority 1992, dated 1994).
# Like-named read-outs stand apart in the source and are kept apart here.
# Experiments:
# [1] = biological target: T1, A1 adenosine receptors (Rattus norvegicus, UniProt P25099); test: inhibition of binding of [3H]N6-phenylisopropyladenosine ([3H]PIA) to A1 adenosine receptors in rat cerebral cortex membranes
# T1 construct: A1 adenosine receptors in rat cerebral cortex membranes; from tissue; host or cells: rat cerebral cortex membranes
# T1 sequence (P25099 1-326): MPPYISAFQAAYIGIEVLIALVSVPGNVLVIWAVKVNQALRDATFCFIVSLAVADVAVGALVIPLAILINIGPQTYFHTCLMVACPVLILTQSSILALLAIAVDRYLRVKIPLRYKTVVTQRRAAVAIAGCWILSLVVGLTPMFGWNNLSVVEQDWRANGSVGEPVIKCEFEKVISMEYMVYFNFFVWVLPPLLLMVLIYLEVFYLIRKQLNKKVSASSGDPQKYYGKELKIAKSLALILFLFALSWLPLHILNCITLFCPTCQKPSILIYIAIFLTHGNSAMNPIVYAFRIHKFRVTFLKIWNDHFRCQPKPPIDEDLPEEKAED
# Protocol: Ukena et al., FEBS Letters 209;122, 1986.
# For the biochemical assays, stock solutions of xanthines in the millimolar concentration range in dimethylsulfoxide were prepared and stored frozen. The solutions were warmed to 50° C. prior to dilution in aqueous medium. […] Acad. Sci. USA, 83:4089, 1986. Inhibition of binding by a range of concentrations of a xanthine or adenosine derivative was assessed in triplicate in at least three separate experiments.
# [2] = biological target: T2, central A1 receptors (Bos taurus, UniProt P28190); test: inhibition of radioligand binding at central A1 receptors, calf brain membranes
# T2 construct: A1 -adenosine receptors in membranes form calf brain; from tissue; host or cells: calf brain membranes
# T2 sequence (P28190 1-326): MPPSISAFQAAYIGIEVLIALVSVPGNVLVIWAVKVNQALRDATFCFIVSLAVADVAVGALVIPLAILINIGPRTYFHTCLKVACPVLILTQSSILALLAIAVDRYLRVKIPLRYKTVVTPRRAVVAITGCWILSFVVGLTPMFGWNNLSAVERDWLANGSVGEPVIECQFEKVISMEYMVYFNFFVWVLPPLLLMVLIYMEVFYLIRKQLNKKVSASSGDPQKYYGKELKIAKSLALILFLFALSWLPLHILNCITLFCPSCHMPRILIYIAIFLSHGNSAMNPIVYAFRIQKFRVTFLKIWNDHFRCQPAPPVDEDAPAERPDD
# Description: ^b against [^125 I]APNEA (i.e. N^6
# ^b against [^125 I]APNEA;
# The compounds, at concentrations relative to the Ki -values obtained, were screened for the ability to inhibit competitive binding of the radioligands [^3 H]PIA to rat brain membranes and [^3 H]XAC to bovine brain membranes, a shown in Table 1.
# [3] = biological target: T3, central A1 receptors (Rattus norvegicus, UniProt P25099); type: binding
# T3 construct: A1 -adenosine receptors in rat brain membranes; from tissue; host or cells: rat brain membranes
# T3 sequence (P25099 1-326): T1 sequence (P25099 1-326)
# [4] = test system: A1-adenosine receptors; test: irreversible inhibition of [3H]XAC binding sites after one hour incubation and washout, bovine brain membranes; set-up: species or system bovine (calf)
# [5] = biological target: T4, rat brain membranes (Rattus norvegicus, UniProt P25099); test: inhibition of [3H]XAC binding to rat brain membranes (blocking experiments)
# T4 construct: A1 -adenosine receptors in rat brain membranes; from tissue; host or cells: rat brain membranes
# T4 sequence (P25099 1-326): T1 sequence (P25099 1-326)
# [6] = test system: A1-adenosine receptors; test: covalent labeling of solubilized central A1 receptor preparation, SDS electrophoresis; type: binding; settings: tritiated 4b, SDS gel, with or without high concentration of R-PIA
# Description: An SDS electrophoresis gel separated proteins from a solubilized central A1 receptor preparation, pretreated with compound 4b (lane 1).
# [7] = stability to storage; type: physicochemical; settings: result in words
# Protocol: A modification of the procedure of Newman et al., J. Med. Chem. 30: 1901, 1987, was used. In this procedure, 1,3-phenylenediamine, 0.211 grams, 1.95 mmol, was dissolved in 80 ml chloroform. Thirty ml water and 0.38 gram, 4.5 mmol, sodium bicarbonate was added, and the mixture was stirred vigorously. After ten minutes, 0.4 ml, 5.2 mmol of freshly distilled thiophosgene was added. After one hour, the phases were separated, and the organic layer was dried over sodium sulfate and evaporated. The residue was triturated with ether:petroleum ether, 1:1, and filtered. The filtrate was evaporated, leaving the product as a white solid (0.30 g, 81% yield), melting at 50.5°-51° C.
# [8] = chemical reactivity towards primary amines (thin layer chromatography); type: physicochemical; settings: ethylene diamine in molar excess, TLC
smiles,measurement,setting,value
CCCn1c(=O)c2nc(-c3ccc(OCC(=O)NCCN=C(S)Nc4ccc(N=C=S)cc4)cc3)[nH]c2n(CCC)c1=O [Compound 4b],Ki,"[1]; Table I, rat, against [3H]PIA, read-out: Ki at central A1 receptors, rat",6.6 ± 1.31 nM
same,Ki,[2],1 nM
same,remaining activity at 0.1 µM,"[3]; 1 h, read-out: remaining receptor binding sites after treatment (of initial density)",34%
same,"irreversible inhibition of A1-adenosine receptors, rat brain membranes","[3]; rat brain, result in words",irreversibly inhibits A1 -adenosine receptors in membranes form calf brain and from rat brain in a dose-dependent manner
same,inhibition at 0.1 µM,[3]; read-out: % inhib (conc),63%
same,irreversible inhibition of central A1-adenosine receptors,[3]; result in words,behave pharmacologically as irreversible inhibitors of central A1 -adenosine receptors
same,adenosine receptor binding sites irreversibly inhibited,"[4]; 500 nM, one hour incubation, bovine brain membranes, [3H]XAC binding",90%
same,"irreversible inhibition of A1-adenosine receptors, calf brain membranes","[4]; calf/bovine brain, result in words",irreversibly inhibits A1 -adenosine receptors in membranes form calf brain and from rat brain in a dose-dependent manner
same,Ki,[5],22 nM
same,covalent labeling of A1-adenosine receptor,[6],"Specific labeling of the receptor (MW approximately 40,000)"
same,stability to storage,[7],stable to storage at -20 °C
same,reactivity towards primary amines,[8],quantitatively reactive towards primary amines
"S=C=Nc1cccc(N=C=S)c1 [Compound 5a, 1,3-phenyldiisothiocyanate]",stability to storage,[7],stable to storage at room temperature for at least several weeks
O=C(Cc1ccc(NC(=O)Cc2ccc(Nc3ncnc4c3ncn4[C@@H]3O[C@H](CO)[C@@H](O)[C@H]3O)cc2)cc1)NCCNC(=S)Nc1cccc(N=C=S)c1 [Compound 28],Ki,[1],0.86 nM
same,Ki,[2],0.1 nM
same,inhibition at 0.05 µM,[3]; read-out: % inhib (conc),> 80%
same,irreversible inhibition of central A1-adenosine receptors,[3]; result in words,behave pharmacologically as irreversible inhibitors of central A1 -adenosine receptors
"C[C@H](Cc1ccccc1)Nc1ncnc2c1ncn2[C@@H]1O[C@H](CO)[C@@H](O)[C@H]1O [R-PIA, reference compound]",covalent labeling of A1-adenosine receptor,[6],blocks the irreversible ligand
CCCn1c(=O)c2[nH]c(-c3ccc(OCC(=O)NCCNC(=S)Nc4ccc(NC(=S)NCCN)cc4)cc3)nc2n(CCC)c1=O [ethylene diamine adduct],Ki,"[5]; rat brain membranes, [3H]XAC",18 nM
